Test results from patent US9850283B2, “Macrocyclic inhibitors of the PD-1/PD-L1 and CD80(B7-1)/PD-L1 protein/protein interactions” (BRISTOL-MYERS SQUIBB COMPANY, priority 2013, dated 2017).
Read-outs that look alike come from different tables or passages of the source. Positions of bridges follow the written chain, without caps; N, C: chain ends. Non-standard residues stand in square brackets, D forms with d. Residues, ends and D or L forms follow the SMILES beside them. ξ: configuration not given here. Phe(3,4,5-F3) = N[C@@H](Cc1cc(F)c(F)c(F)c1)C(=O)O; Pro(4R-NH2) = N[C@H]1CN[C@H](C(=O)O)C1; d(cisHyp) = O=C(O)[C@H]1C[C@@H](O)CN1; Bta = N[C@@H](Cc1csc2ccccc12)C(=O)O; Hyp = O=C(O)[C@@H]1C[C@@H](O)CN1; NMeF = CN[C@@H](Cc1ccccc1)C(=O)O; dHyp = O=C(O)[C@H]1C[C@H](O)CN1; dNMeNle = CCCC[C@@H](NC)C(=O)O; NMeNle = CCCC[C@H](NC)C(=O)O; NMeM = CN[C@@H](CCSC)C(=O)O; Pip = O=C(O)[C@@H]1CCCCN1; dPip = O=C(O)[C@H]1CCCCN1; NMeA = CN[C@@H](C)C(=O)O; Dab = NCC[C@H](N)C(=O)O; Dap = NC[C@H](N)C(=O)O; ξP = O=C(O)C1CCCN1; ξC = NC(CS)C(=O)O

Tests used:
CMV-specific T cells = CMV-specific T cells (Homo sapiens, UniProt Q9NZQ7); test: CMV-specific T cell function assay (IFNγ secretion, ELISA); assay type: cell-based
CMV-specific T cells, sequence (Q9NZQ7 19-290): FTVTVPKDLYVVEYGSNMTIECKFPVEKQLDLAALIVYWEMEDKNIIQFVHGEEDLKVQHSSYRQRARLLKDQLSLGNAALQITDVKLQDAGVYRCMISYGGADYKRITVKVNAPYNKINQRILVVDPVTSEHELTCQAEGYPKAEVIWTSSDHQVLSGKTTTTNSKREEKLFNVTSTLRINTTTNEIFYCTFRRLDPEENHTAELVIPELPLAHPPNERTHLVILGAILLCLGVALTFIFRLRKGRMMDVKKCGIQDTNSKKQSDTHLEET
Experimental: CMV-specific T Cell Function Assay. […] AIM-V medium (Life Technologies, Grand Island, N.Y.) supplemented with 10% heat-inactivated fetal bovine serum (FBS, Sigma, St Louis, Mo.) was used at a total volume of 200 µL/well in triplicate. The cells were cultured for 4 days at 37° C., 5% CO2 at which time culture supernatant was harvested for determination of secreted IFNγ by ELISA (OptEIA hIFNγ ELISA Kit, BD Biosciences, San Jose, Calif.).

[1] = target: T1, LK35.2-hPD-L1 cells / PE-labeled PD-1-Ig (Homo sapiens, UniProt Q9NZQ7); test: LK35.2-hPD-L1 cell binding high-content screening assay; assay type: cell-based
T1 construct: expressed in transfected cells; host or cells: LK35.2 mouse B cell line
T1 sequence (Q9NZQ7 19-290): as above
How it was run: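 Fluorescent PD-1-Ig binding to PD-L1-expressing LK35.2 cells, imaged after washing. Conditions: 1 nM PE-PD-1-Ig, 37 °C, 1 h, RPMI with 10% fetal calf serum.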

Human PD-L1/PD-1 = target: T2, Human PD-L1/PD-1 (Homo sapiens, UniProt Q9NZQ7); test: HTRF PD-1-Ig/PD-L1-His binding assay (human PD-L1)
T2 construct: made in house; host or cells: HEK293T
T2 sequence (Q9NZQ7 with tags, fused parts or gaps): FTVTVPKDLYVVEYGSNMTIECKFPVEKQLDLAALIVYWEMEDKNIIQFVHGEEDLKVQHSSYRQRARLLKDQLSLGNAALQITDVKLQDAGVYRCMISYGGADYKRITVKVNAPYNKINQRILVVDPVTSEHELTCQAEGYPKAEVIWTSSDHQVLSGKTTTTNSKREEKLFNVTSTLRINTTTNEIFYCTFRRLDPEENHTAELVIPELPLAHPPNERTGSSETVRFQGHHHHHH
How it was run: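 HTRF read-out: Eu cryptate anti-Ig mAb 1 nM final, APC anti-His mAb 20 nM final, added over the binding reaction. Proteins were PD-1-Ig and PD-L1-His ectodomain fusions. Buffer was dPBS, 0.1% BSA, 0.05% Tween-20.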

[2] = numeric value, read-out: CMV Recall EC50 values
[3] = cell binding assay, cell line not given, numeric value, read-out: CBA IC50 values
[4] = numeric value, read-out: HTRF IC50 values
[5] = value given instead of cluster, read-out: CMV Recall EC50 value
[6] = cell binding assay, cell line not given, value given instead of cluster, read-out: CBA IC50 value
[7] = value given instead of cluster, read-out: HTRF IC50 value
[8] = read-out: CMV Recall EC50 value
[9] = cell line of CBA not given (LK35.2-hPD-L1 or 293T-hPD-L1), read-out: CBA IC50 value

| Structure (SMILES) | EC50 (CMV-specific T cells; [2]) [nM] | IC50 [1, 3] [nM] | IC50 (Human PD-L1/PD-1; [4]) [nM] | EC50 (CMV-specific T cells; [8]) [nM] | IC50 [1, 9] [nM] | IC50 (Human PD-L1/PD-1; read-out: HTRF IC50 value) [nM] | other results |
| --- | --- | --- | --- | --- | --- | --- | --- |
| CCCC[C@H]1C(=O)N(C)[C@@H](CCCC)C(=O)N[C@@H](CCCNC(=N)N)C(=O)NC(C(=O)N[C@@H](CO)C(N)=O)CSCC(=O)N[C@@H](Cc2ccc(O)cc2)C(=O)N(C)[C@@H](C)C(=O)N[C@@H](CC(N)=O)C(=O)N2CCC[C@H]2C(=O)N[C@@H](Cc2cnc[nH]2)C(=O)N[C@@H](CC(C)C)C(=O)N2CCC[C@H]2C(=O)N[C@@H](Cc2c[nH]c3ccccc23)C(=O)N[C@@H](CO)C(=O)N[C@@H](Cc2csc3ccccc23)C(=O)N1C (stereo partly drawn) [Example 9031] ({CH2CO}-Y[NMeA]NPHLPWS[Bta][NMeNle][NMeNle]R[ξC]S-NH2; thioether N-14) | 39.4 | 0.643 | 7.15 |  |  |  |  |
| CCCC[C@H]1C(=O)N(C)[C@@H](CCCC)C(=O)N[C@@H](CCCNC(=N)N)C(=O)NC(C(=O)NCC(N)=O)CSCC(=O)N[C@@H](Cc2ccc(O)cc2)C(=O)N(C)[C@@H](C)C(=O)N[C@@H](CC(N)=O)C(=O)N2CCC[C@H]2C(=O)N[C@@H](Cc2cnc[nH]2)C(=O)N[C@@H](CO)C(=O)N2CCC[C@H]2C(=O)N[C@@H](Cc2c[nH]c3ccccc23)C(=O)N[C@@H](CO)C(=O)N[C@@H](Cc2csc3ccccc23)C(=O)N1C (stereo partly drawn) [Example 9068] ({CH2CO}-Y[NMeA]NPHSPWS[Bta][NMeNle][NMeNle]R[ξC]G-NH2; thioether N-14) | 249 | 2.05 | 0.385 |  |  |  |  |
| CCCC[C@H]1C(=O)N[C@@H](CCCNC(=N)N)C(=O)NC(C(=O)NCC(N)=O)CSCC(=O)N[C@@H](Cc2ccc(O)cc2)C(=O)N(C)[C@@H](C)C(=O)N[C@@H](CC(N)=O)C(=O)N2CCC[C@H]2C(=O)N[C@@H](Cc2cnc[nH]2)C(=O)N[C@@H](CC(C)C)C(=O)N2C[C@H](O)C[C@H]2C(=O)N[C@@H](Cc2c[nH]c3ccccc23)C(=O)N[C@@H](CO)C(=O)N[C@@H](Cc2c[nH]c3ccccc23)C(=O)N(C)[C@@H](CCSC)C(=O)N1C (stereo partly drawn) [Example 9026] | 34.4 | 0.948 | 3.47 |  |  |  |  |
| CCCC[C@H]1C(=O)N(C)[C@@H](CCCC)C(=O)N[C@@H](CN)C(=O)N[C@H](C(=O)NCC(N)=O)CSCC(=O)N[C@@H](Cc2ccc(O)cc2)C(=O)N(C)[C@@H](C)C(=O)N[C@@H](CC(N)=O)C(=O)N2CCC[C@H]2C(=O)N[C@@H](Cc2cnc[nH]2)C(=O)N[C@@H](CCC(=O)O)C(=O)N2C[C@H](O)C[C@H]2C(=O)N[C@@H](Cc2c[nH]c3ccccc23)C(=O)N[C@@H](CO)C(=O)N[C@@H](Cc2c[nH]c3ccccc23)C(=O)N1C [Example 5062] ({CH2CO}-Y[NMeA]NPHE[Hyp]WSW[NMeNle][NMeNle][Dap]CG-NH2; thioether N-14) |  |  |  |  |  |  | EC50 (CMV-specific T cells; [5]): 14.5 nM; IC50 [1, 6]: 2.28 nM; IC50 (Human PD-L1/PD-1; [7]): 5.15 nM |
| CCCC[C@@H]1C(=O)N(C)[C@H](CCCC)C(=O)N[C@@H](C)C(=O)N[C@@H](C(=O)NCC(N)=O)CSCC(=O)N[C@@H](Cc2ccc(O)cc2)C(=O)N2CCCC2C(=O)N[C@H](CC(=O)O)C(=O)N2CCC[C@H]2C(=O)N[C@H](Cc2c[nH]cn2)C(=O)N[C@@H](CCC(=O)O)C(=O)N2CCCC2C(=O)N[C@H](Cc2c[nH]c3ccccc23)C(=O)N[C@@H](CCN)C(=O)N[C@@H](Cc2c[nH]c3ccccc23)C(=O)N1C (stereo partly drawn) [Example 1215] ({CH2CO}-Y[ξP][dD]P[dH]E[ξP][dW][Dab]W[dNMeNle][dNMeNle]A[dC]G-NH2; thioether N-14) |  |  |  | 508 | 92.5 | 50.9 |  |
| CCCC[C@H]1C(=O)N(C)[C@@H](CCCC)C(=O)N[C@@H](CC(C)C)C(=O)N[C@H](C(=O)NCC(N)=O)CSCC(=O)N[C@@H](Cc2ccc(O)cc2)C(=O)N(C)[C@@H](C)C(=O)N[C@@H](CC(N)=O)C(=O)N2CCC[C@H]2C(=O)N[C@@H](CN)C(=O)N[C@@H](CCC(=O)O)C(=O)N2C[C@H](O)C[C@H]2C(=O)N[C@@H](Cc2c[nH]c3ccccc23)C(=O)N[C@@H](CCN)C(=O)N[C@@H](Cc2c[nH]c3ccccc23)C(=O)N1C [Example 5067] ({CH2CO}-Y[NMeA]NP[Dap]E[Hyp]W[Dab]W[NMeNle][NMeNle]LCG-NH2; thioether N-14) |  |  |  |  |  |  | EC50 (CMV-specific T cells; [5]): 3.27 nM; IC50 [1, 6]: 1.81 nM; IC50 (Human PD-L1/PD-1; [7]): 5.77 nM |
| CCCC[C@H]1C(=O)N[C@@H](CCCNC(=N)N)C(=O)NC(C(=O)NCC(N)=O)CSCC(=O)N[C@@H](Cc2ccc(O)cc2)C(=O)N(C)[C@@H](C)C(=O)N[C@@H](CC(N)=O)C(=O)N2CCC[C@H]2C(=O)N[C@@H](CN)C(=O)N[C@@H](CC(C)C)C(=O)N2C[C@H](O)C[C@H]2C(=O)N[C@@H](Cc2c[nH]c3ccccc23)C(=O)N[C@@H](CO)C(=O)N[C@@H](Cc2c[nH]c3ccccc23)C(=O)N(C)[C@@H](CCSC)C(=O)N1C (stereo partly drawn) [Example 9091] ({CH2CO}-Y[NMeA]NP[Dap]L[Hyp]WSW[NMeM][NMeNle]R[ξC]G-NH2; thioether N-14) | 5.6 | 3.03 | 774 |  |  |  |  |
| CCCC[C@H]1C(=O)N2C[C@H](O)C[C@@H]2C(=O)N[C@@H](CC(=O)O)C(=O)N[C@@H](C(C)C)C(=O)N(C)[C@@H](Cc2ccccc2)C(=O)N[C@@H](Cc2ccc(O)cc2)C(=O)N2CCCC[C@@H]2C(=O)N[C@@H](Cc2c[nH]c3ccccc23)C(=O)N[C@@H](Cc2ccc(O)cc2)C(=O)N[C@@H](CC(C)C)C(=O)N[C@H](C(=O)NCC(N)=O)CSCC(=O)N[C@@H](Cc2cc(F)c(F)c(F)c2)C(=O)N(C)[C@@H](Cc2ccccc2)C(=O)N1C [Example 3590] ({CH2CO}-[Phe(3,4,5-F3)][NMeF][NMeNle][d(cisHyp)]DV[NMeF]Y[dPip]WYLCG-NH2; thioether N-13) |  |  |  |  |  |  | EC50 (CMV-specific T cells; read-out: CMV Recall EC50 cluster, cluster symbol): 1000 nM; IC50 ([1]; cell binding assay, cell line not given, cluster symbol, read-out: CBA IC50 cluster): 0.158 to 4.71 nM; IC50 (Human PD-L1/PD-1; cluster symbol, read-out: HTRF IC50 cluster): 0.385 to 6.74 nM |
| CCCC[C@H]1C(=O)N(C)[C@@H](CCCC)C(=O)N[C@@H](CCCNC(=N)N)C(=O)N[C@H](C(=O)NCC(N)=O)CSCC(=O)N[C@@H](Cc2ccc(O)cc2)C(=O)N2CCCC[C@H]2C(=O)N[C@@H](CC(N)=O)C(=O)N2CCC[C@H]2C(=O)N[C@@H](Cc2cnc[nH]2)C(=O)N[C@@H](CCC(=O)O)C(=O)N2C[C@H](O)C[C@H]2C(=O)N[C@@H](Cc2c[nH]c3ccccc23)C(=O)N[C@@H](CO)C(=O)N[C@@H](Cc2c[nH]c3ccccc23)C(=O)N1C [Example 1237] ({CH2CO}-Y[Pip]NPHE[Hyp]WSW[NMeNle][NMeNle]RCG-NH2; thioether N-14) |  |  |  | 21.9 | 4.92 | 16.5 |  |
| CCCC[C@H]1C(=O)N(C)[C@@H](CCCC)C(=O)N[C@@H](CN)C(=O)N[C@H](C(=O)NCC(N)=O)CSCC(=O)N[C@@H](Cc2ccc(O)cc2)C(=O)N(C)[C@@H](C)C(=O)N[C@@H](CC(=O)O)C(=O)N2CCC[C@H]2C(=O)N[C@@H](CN)C(=O)N[C@@H](CC(C)C)C(=O)N2C[C@H](O)C[C@H]2C(=O)N[C@@H](Cc2c[nH]c3ccccc23)C(=O)N[C@@H](CO)C(=O)N[C@@H](Cc2csc3ccccc23)C(=O)N1C [Example 1163] ({CH2CO}-Y[NMeA]DP[Dap]L[Hyp]WS[Bta][NMeNle][NMeNle][Dap]CG-NH2; thioether N-14) |  |  |  | 2.93 | 4.04 | 6.24 |  |
| CCCC[C@H]1C(=O)N2CCC[C@@H]2C(=O)N2C[C@H](N)C[C@H]2C(=O)N[C@@H](C(C)C)C(=O)N(C)[C@@H](Cc2ccccc2)C(=O)N[C@@H](Cc2ccc(O)cc2)C(=O)N2CCCC[C@@H]2C(=O)N[C@@H](Cc2c[nH]c3ccccc23)C(=O)N[C@@H](Cc2ccc(O)cc2)C(=O)N[C@@H](CC(C)C)C(=O)N[C@H](C(=O)NCC(N)=O)CSCC(=O)N[C@@H](Cc2cc(F)c(F)c(F)c2)C(=O)N(C)[C@@H](Cc2ccccc2)C(=O)N1C [Example 3194] ({CH2CO}-[Phe(3,4,5-F3)][NMeF][NMeNle][dP][Pro(4R-NH2)]V[NMeF]Y[dPip]WYLCG-NH2; thioether N-13) |  |  |  | 25.2 | 1.15 | 4.39 |  |
| CCCC[C@H]1C(=O)N2C[C@@H](O)C[C@@H]2C(=O)N[C@@H](CC(=O)O)C(=O)N[C@@H](C(C)C)C(=O)N(C)[C@@H](Cc2ccccc2)C(=O)N[C@@H](Cc2ccc(O)cc2)C(=O)N2CCCC[C@@H]2C(=O)N[C@@H](Cc2c[nH]c3ccccc23)C(=O)N[C@@H](Cc2ccc(O)cc2)C(=O)N[C@@H](CC(C)C)C(=O)N[C@H](C(=O)NCC(N)=O)CSCC(=O)N[C@@H](Cc2cc(F)c(F)c(F)c2)C(=O)N(C)[C@@H](Cc2ccccc2)C(=O)N1C [Example 3592] ({CH2CO}-[Phe(3,4,5-F3)][NMeF][NMeNle][dHyp]DV[NMeF]Y[dPip]WYLCG-NH2; thioether N-13) |  |  |  |  |  |  | EC50 (CMV-specific T cells; [5]): 0.62 nM; IC50 [1, 6]: 0.158 nM; IC50 (Human PD-L1/PD-1; [7]): 4 nM |
